{"source": "ChEMBL document CHEMBL5346867", "about": "“A close look into the biological and synthetic aspects of fused pyrazole derivatives” (Eur J Med Chem, 2022)", "key": {"[1]": {"target": "Epidermal growth factor receptor (Homo sapiens, UniProt P00533)", "sequence (P00533 whole entry)": "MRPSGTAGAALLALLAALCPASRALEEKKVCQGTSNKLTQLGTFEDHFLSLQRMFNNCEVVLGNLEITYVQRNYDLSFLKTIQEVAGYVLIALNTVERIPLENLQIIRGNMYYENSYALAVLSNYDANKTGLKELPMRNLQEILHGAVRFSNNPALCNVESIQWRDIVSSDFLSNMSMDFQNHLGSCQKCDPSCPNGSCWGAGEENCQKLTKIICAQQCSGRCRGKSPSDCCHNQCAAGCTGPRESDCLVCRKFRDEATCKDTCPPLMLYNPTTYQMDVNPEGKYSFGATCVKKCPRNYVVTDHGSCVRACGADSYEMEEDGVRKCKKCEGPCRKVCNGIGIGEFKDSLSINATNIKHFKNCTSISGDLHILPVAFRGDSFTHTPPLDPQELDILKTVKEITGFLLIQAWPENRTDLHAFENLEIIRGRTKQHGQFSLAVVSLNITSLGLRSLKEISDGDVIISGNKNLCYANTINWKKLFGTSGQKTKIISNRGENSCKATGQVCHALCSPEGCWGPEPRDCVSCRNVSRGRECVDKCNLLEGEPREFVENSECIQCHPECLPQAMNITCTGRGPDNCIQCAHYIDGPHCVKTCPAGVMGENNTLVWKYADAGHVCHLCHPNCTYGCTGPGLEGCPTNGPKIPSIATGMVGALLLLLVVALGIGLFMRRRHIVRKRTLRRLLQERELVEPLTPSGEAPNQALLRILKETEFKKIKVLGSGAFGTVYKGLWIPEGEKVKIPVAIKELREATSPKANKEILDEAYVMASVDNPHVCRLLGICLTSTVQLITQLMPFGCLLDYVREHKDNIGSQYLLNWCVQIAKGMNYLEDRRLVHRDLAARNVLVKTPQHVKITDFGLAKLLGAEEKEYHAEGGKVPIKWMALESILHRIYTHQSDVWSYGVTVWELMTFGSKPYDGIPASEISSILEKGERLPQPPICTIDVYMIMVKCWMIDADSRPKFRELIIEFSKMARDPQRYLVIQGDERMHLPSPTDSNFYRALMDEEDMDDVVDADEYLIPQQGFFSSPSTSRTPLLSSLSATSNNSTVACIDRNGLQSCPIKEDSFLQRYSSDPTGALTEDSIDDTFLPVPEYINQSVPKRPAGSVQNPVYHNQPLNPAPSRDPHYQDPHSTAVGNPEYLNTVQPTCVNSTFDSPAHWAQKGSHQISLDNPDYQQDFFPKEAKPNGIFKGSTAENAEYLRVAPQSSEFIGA", "experiment": "Inhibition of EGFR (unknown origin)"}, "[2]": {"system": "Bovine viral diarrhea virus 1", "experiment": "Antiviral activity against Bovine viral diarrhea virus 1 infected in MDBK cells assessed as reduction in viral replication", "assay_type": "functional, organism-based", "conditions": "Bovine viral diarrhea virus isolates and strains"}, "[3]": {"system": "HT-29", "experiment": "cells", "conditions": "Homo sapiens, HT-29, 48 h", "description": "Anti-proliferative activity against human HT-29 assessed as inhibition of cell growth incubated for 48 hrs by MTT assay"}, "[4]": {"target": "T1, Sodium-dependent proline transporter (Homo sapiens) (UniProt Q99884)", "T1 sequence (whole entry)": "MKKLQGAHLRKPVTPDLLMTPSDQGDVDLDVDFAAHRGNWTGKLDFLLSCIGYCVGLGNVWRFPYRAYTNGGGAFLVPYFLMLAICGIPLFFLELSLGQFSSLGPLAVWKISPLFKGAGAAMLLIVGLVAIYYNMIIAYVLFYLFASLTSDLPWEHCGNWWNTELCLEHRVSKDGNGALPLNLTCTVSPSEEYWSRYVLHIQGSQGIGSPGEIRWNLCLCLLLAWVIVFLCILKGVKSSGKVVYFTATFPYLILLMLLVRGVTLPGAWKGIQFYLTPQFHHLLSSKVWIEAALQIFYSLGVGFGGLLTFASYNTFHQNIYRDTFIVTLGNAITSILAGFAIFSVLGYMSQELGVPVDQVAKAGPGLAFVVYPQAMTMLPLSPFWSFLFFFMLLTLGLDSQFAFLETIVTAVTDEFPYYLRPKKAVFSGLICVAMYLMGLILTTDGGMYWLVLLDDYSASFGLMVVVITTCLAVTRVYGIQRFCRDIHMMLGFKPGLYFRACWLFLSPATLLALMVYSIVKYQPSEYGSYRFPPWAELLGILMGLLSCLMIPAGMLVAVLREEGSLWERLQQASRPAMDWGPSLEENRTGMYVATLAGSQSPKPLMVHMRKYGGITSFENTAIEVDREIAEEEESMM", "experiment": "Inhibition of human PROT at 0.1 uM relative to control"}, "[5]": {"target": "Vascular endothelial growth factor receptor 2 (Homo sapiens, UniProt P35968)", "sequence (P35968 whole entry)": "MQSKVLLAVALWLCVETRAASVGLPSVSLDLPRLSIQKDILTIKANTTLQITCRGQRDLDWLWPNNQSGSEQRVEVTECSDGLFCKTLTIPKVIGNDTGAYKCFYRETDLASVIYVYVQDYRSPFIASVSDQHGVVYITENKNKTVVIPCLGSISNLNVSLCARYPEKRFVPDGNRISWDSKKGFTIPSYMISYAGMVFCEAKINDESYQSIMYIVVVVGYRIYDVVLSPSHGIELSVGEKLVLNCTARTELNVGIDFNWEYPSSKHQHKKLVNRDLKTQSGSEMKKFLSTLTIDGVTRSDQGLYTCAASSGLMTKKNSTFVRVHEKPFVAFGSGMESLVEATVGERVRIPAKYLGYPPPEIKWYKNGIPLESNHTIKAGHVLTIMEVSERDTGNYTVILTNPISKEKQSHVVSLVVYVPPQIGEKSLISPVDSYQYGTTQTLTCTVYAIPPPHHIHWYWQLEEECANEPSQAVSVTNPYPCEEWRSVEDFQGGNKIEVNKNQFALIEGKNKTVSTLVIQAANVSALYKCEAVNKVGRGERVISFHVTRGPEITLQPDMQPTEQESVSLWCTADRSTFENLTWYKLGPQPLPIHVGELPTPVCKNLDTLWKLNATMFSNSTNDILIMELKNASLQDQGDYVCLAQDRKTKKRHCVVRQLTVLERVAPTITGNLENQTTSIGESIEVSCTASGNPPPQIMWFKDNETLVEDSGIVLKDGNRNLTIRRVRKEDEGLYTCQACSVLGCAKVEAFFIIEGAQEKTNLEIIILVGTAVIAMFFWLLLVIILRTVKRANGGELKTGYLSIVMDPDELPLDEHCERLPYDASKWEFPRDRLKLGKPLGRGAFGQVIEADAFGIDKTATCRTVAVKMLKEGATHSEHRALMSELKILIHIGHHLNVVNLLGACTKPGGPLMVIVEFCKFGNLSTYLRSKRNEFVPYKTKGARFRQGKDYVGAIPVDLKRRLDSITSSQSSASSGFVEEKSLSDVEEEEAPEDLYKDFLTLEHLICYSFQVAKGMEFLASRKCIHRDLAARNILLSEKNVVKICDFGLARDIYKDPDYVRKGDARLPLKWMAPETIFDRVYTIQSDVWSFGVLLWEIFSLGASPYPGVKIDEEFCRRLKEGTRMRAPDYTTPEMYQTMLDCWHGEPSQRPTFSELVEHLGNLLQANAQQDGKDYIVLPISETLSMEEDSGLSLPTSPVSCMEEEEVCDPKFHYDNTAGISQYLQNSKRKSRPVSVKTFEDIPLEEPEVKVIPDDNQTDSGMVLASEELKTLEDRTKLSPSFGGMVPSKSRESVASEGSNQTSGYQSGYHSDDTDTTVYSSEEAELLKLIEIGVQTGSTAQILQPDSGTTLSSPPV", "experiment": "Inhibition of VEGFR-2 (unknown origin)"}}}
{"compound": "CC1=NNC2Oc3ncn(N)c(=N)c3C(c3ccccc3Br)C12", "note": "(stereo unspecified)", "values": [{"measurement": "IC50", "setting": "[1]", "result": 60, "unit": "nM"}]}
{"compound": "Cc1nn(-c2ccc(Cl)cc2)c2c1C(=O)N(c1ccccc1)C2", "values": [{"measurement": "EC50", "setting": "[2]", "result": 120, "unit": "nM"}]}
{"compound": "COc1cc(/C=N/NC(=O)COc2nc(C)nc3c2c(C)nn3-c2ccccc2)cc(OC)c1OC", "values": [{"measurement": "IC50", "setting": "[3]", "result": 5360, "unit": "nM"}]}
{"compound": "NC(=O)c1ncn([C@@H]2O[C@H](CO)[C@@H](O)[C@H]2O)n1", "note": "[RIBAVIRIN]", "values": [{"measurement": "EC50", "setting": "[2]", "result": 1300, "unit": "nM"}]}
{"compound": "CCCCC[C@H]1CCCN1C(=O)c1nn(C(C)(C)C)c2nc(NC(=O)c3ccc(C)cc3)sc12", "values": [{"measurement": "inhibition", "setting": "[4]", "result": 50, "unit": "%"}]}
{"compound": "CC1=NNC2OC(NS(=O)(=O)c3ccc(C)cc3)=C(C#N)C(c3ccccc3Br)C12", "note": "(stereo unspecified)", "values": [{"measurement": "IC50", "setting": "[5]", "result": 220, "unit": "nM"}]}
